This is an account of results in patent US11439650B2, “Thermo-kinetic mixing for pharmaceutical applications” (BOARD OF REGENTS, THE UNIVERSITY OF TEXAS SYSTEM, priority 2007, dated 2022).

Data set [1] can be described thus: HPLC degradation products and mass balance of hydrocortisone formulation processed by TKC. The class given is physicochemical. The protocol: Pharmaceutical compositions of hydrocortisone were prepared by TKC, having an ejection temperature of approximately 160° C., and compared to the unprocessed drug substance to evaluate the formation of degradation products induced by processing.
Analytical testing of the hydrocortisone formulation processed by TKC was performed by HPLC using a Phenomenex C18 column and mobile phase of 65:35 methanol:water at a flow rate of 1 ml/min. Degradation products were identified and are described in terms of their retention time under this method.

The conditions of data set [2]: neutral pH media; reference (42); cited from earlier work.
The nature of data set [3]: DSC / modulated DSC glass transition analysis. The class given is physicochemical. To be noted: DSC/mDSC, 10° C./min. The protocol:
Differential Scanning calorimetry (DSC). DSC analysis was conducted using a TA Instruments Model 2920 DSC (New Castle, Del.) equipped with a refrigerated cooling system. Samples were weighed to 15±5 mg in aluminum crimped pans (Kit 0219-0041, Perkin-Elmer Instruments, Norwalk, Conn.). For the KTZ dispersions in Methocel™ E50 and Kollidon® 30 the samples were heated at a ramp rate of 10° C./min from 5 to 215° C. with a modulation temperature amplitude of 0.5° C. and a modulation period of 40 seconds for all studies. For the IND and KTZ dispersions in […]® L 100-55 the samples were analyzed by conventional, non-modulated DSC at a ramp rate of 10° C./min from 5 to 200° C. Ultrahigh purity nitrogen was used as the purge gas at a flow rate of 40 mL/min. All data analyses were performed using TA Universal Analysis 2000 software. The thermogram for amorphous KTZ, used in the DSC analysis of the solid dispersions formulations of KTZ in Methocel™ E50 and Kollidon® 30 was obtained on a second heating of crystalline KTZ following an initial heating to 215° C. followed by rapid cooling (20° C./min) to 5° C. The thermograms of Methocel™ E50 and Kollidon® 30 were obtained by first run DSC following preheating of the polymer powders to 90° C. for 15 minutes in an MF-50 model moisture analyzer (AND Company Ltd. Encino, Calif.) to expel absorbed moisture.
Modulated Differential scanning calorimetry testing for the griseofulvin products was performed using a TA Instruments Model 2920 DSC (New Castle, Del.) and analyzed using TA Universal Analysis 2000 Software. Samples were accurately weighed to 15±2 mg in aluminum crimped pans. […]
Modulated Differential scanning calorimetry testing of itraconazole:HPMC E5 processed by TKC and by HME was performed using a TA Instruments Model 2920 DSC (New Castle, Del.) and analyzed using TA Universal Analysis 2000 Software. […]
The tested were conducted on a TA Instruments Model 2920 DSC (New Castle, Del.) and analyzed using TA Universal Analysis 2000 Software. […]

With `C[C@]12CCC(=O)C=C1CC[C@@H]1[C@@H]2[C@@H](O)C[C@@]2(C)[C@H]1CC[C@]2(O)C(=O)CO` [Hydrocortisone, USP, Hydrocortisone], the “Impurity - 3.2” value in data set [1] (HPLC retention time 3.2) is given as 0.20%. Also, the “Impurity - 3.9” value in data set [1] (HPLC retention time 3.9) is 0.26%. For the same compound, the “Impurity - 4.9” value in data set [1] (HPLC retention time 4.9) is on record as 0.20%. The “Impurity - 5.5” value in data set [1] (HPLC retention time 5.5) is 0.62%. For the same compound, the “Impurity - 8.7” value in data set [1] (HPLC retention time 8.7) was 0.13%.

On to `CC(=O)N1CCN(c2ccc(OCC3COC(Cn4ccnc4)(c4ccc(Cl)cc4Cl)O3)cc2)CC1` (stereo not drawn) [KTZ, ketoconazole], for which, in data set [2], the “equilibrium (saturation) solubility” value was 5.98 µg/mL.

In the case of `CC(=O)N1CCN(c2ccc(OCC3COC(Cn4ccnc4)(c4ccc(Cl)cc4Cl)O3)cc2)CC1` (stereo not drawn) [amorphous KTZ, ketoconazole], the “glass transition temperature (Tg)” value in data set [3] was 45 °C; in data set [3] (listed as Amorphous KTZ), “approximately 45 °C”.

In the case of `COC1=CC(=O)C[C@@H](C)[C@]12Oc1c(Cl)c(OC)cc(OC)c1C2=O` [amorphous griseofulvin, griseofulvin], the “glass transition temperature (Tg)” value in data set [3] stood at 90 °C.
